SMILES strings stand for the structures.

Data set [1] is described as follows: Storage of solid forms in closed vessels at 25° C. and 50° C. The data set is classed as physicochemical. Conditions: for Modification after storage in closed vessels: 12 months, humidity not set.
A short description of data set [2]: Solubility in water compared with free base. To be noted: compared with the free base. The data set is classed as physicochemical.
Data set [3] can be described thus: Moisture sorption: storage at various humidities, thermogravimetric analysis. Format: physicochemical. Conditions: for Mass loss after storage / Modification after storage: 25° C., 12 months. How it is done: TGA thermograms were recorded using thermobalances (model TGA7 and Pyris 1) from Perkin-Elmer.
The measurements were performed with a heating rate of 10 Kmin^−1 using open platinum pans. Flow gas was nitrogen. There was no sample preparation.
Their moisture content was then determined by thermogravimetric analysis.

Data set [4] is described as follows: Stability in brown glass bottle. The data set is classed as physicochemical. To be noted: for Assay calc. on dried substance / Ethanol / Material and colour / Sum of all organic impurities / Water: brown glass bottle.
Data set [5] in a line: Bioavailability. To be noted: stated as result of better solubility than the free base.
The nature of data set [6]: Crystalline form (XRPD) in coated tablet during storage. Format: physicochemical. To be noted: see Table 5. The protocol: X-Ray diffraction patterns were recorded at room temperature using XRD-diffractometers X'Pert PRO (PANalytical) and STOE STADI-P (radiation Cu K alpha 1, wavelength 1.5406 Å). There was no sample preparation. All X-Ray reflections are quoted as °2θ (theta) values (peak maxima) with a resolution of ±0.2°.
Tablets with compound III were manufactured according to the method described above and an initial XRPD was recorded.

Data set [7] is described as follows: Slurry experiments of monohydrate (A) in various solvents. The data set is classed as physicochemical. From the text: The residues were filtered off and dried at room temperature and ambient humidity. Reproducible preparation was not possible for all solid state forms.
A short description of data set [8]: Hygroscopicity and chemical stability of the di-hydrochloride on standing in air. Format: physicochemical.

Consider `COCc1c(-c2cc3cc(C)cc(OC)c3s2)c2c(N)ncnn2c1CN1CCNC(=O)C1.Cl.O` [Compound (III), 4-{[4-amino-6-(methoxymethyl)-5-(7-methoxy-5-methyl-1-benzothiophen-2-yl)pyrrolo[2,1-f][1,2,4]triazin-7-yl]methyl}piperazin-2-one hydrochloride hydrate], for which the “Modification after storage in closed vessels” value in data set [1] (25° C.) and in data set [1] (50° C.) was “Monohydrate” each time. For the same compound, the physical stability result in data set [1] (Storage at 25 and 50° C. for 12 month) is listed as “no changes in stability”. Moreover, the solubility in water entry in data set [2] was “significantly better solubility in water”. In addition, the “Mass loss after storage” value in data set [3] (15% r. h.), in data set [3] (85% r. h.) and in data set [3] (97% r. h.) was 3.7% throughout. Besides, the Modification after storage result in data set [3] (15% r. h.), in data set [3] (85% r. h.) and in data set [3] (97% r. h.) was “Monohydrate” throughout. The Hygroscopicity result in data set [3] (conclusion from moisture sorption tests, 12 month at 15%, 85% and 97% r.h.) is listed as “not hygroscopic”. The uptake of water result in data set [3] (stored for 12 month at 15% r.h., 85% r.h and 97% r.h.) is “no uptake of water”. Moreover, the “Stability during storage over a long period of time” value in data set [4] was “very stable during storage”. For the same compound, the “Assay calc. on dried substance” value is 99.8% in data set [4] (25° C./60% r.h., 3 months); 100.0% in data set [4] (25° C./60% r.h., 6 months); 100.0% in data set [4] (25° C./60% r.h., 9 months); 98.1% in data set [4] (25° C./60% r.h., 12 months); 100.4% in data set [4] (25° C./60% r.h., 18 months); 98.8% in data set [4] (25° C./60% r.h., 24 months). The “Assay calc. on dried substance” value in data set [4] (40° C./75% r.h., 3 months) is given as 98.4%; in data set [4] (40° C./75% r.h., 6 months), 99.7%; in data set [4] (initial), 100.3%. For the same compound, the Ethanol in data set [4] (25° C./60% r.h., 3 months) was 0.460%; in data set [4] (25° C./60% r.h., 6 months), 0.467%; in data set [4] (25° C./60% r.h., 9 months) it was 0.444%; in data set [4] (25° C./60% r.h., 12 months), 0.441%; in data set [4] (25° C./60% r.h., 18 months), 0.434%; in data set [4] (25° C./60% r.h., 24 months) it was 0.415%. The Ethanol in data set [4] (40° C./75% r.h., 3 months) is on record as 0.406%; in data set [4] (40° C./75% r.h., 6 months), 0.435%; in data set [4] (initial), 0.533%. Also, the Material and colour entry in data set [4] (25° C./60% r.h., 3 months) was “slightly grey-tinged solid”; in data set [4] (25° C./60% r.h., 6 months), “slightly grey-tinged solid”; in data set [4] (25° C./60% r.h., 9 months), “slightly grey-tinged solid”; in data set [4] (25° C./60% r.h., 12 months), “slightly grey-tinged solid”; in data set [4] (25° C./60% r.h., 18 months) it was “slightly grey-tinged solid”; in data set [4] (25° C./60% r.h., 24 months), “slightly grey-tinged solid”. In addition, the Material and colour entry is reported as “slightly grey-tinged solid” in data set [4] (40° C./75% r.h., 3 months); “slightly grey-tinged solid” in data set [4] (40° C./75% r.h., 6 months); “slightly grey-tinged solid” in data set [4] (initial). The “Sum of all organic impurities” value in data set [4] (25° C./60% r.h., 3 months) came out at 1.08%; in data set [4] (25° C./60% r.h., 6 months), 1.05%; in data set [4] (25° C./60% r.h., 9 months), 1.14%; in data set [4] (25° C./60% r.h., 12 months), 1.22%; in data set [4] (25° C./60% r.h., 18 months), 1.17%; in data set [4] (25° C./60% r.h., 24 months), 1.14%. Besides, the “Sum of all organic impurities” value in data set [4] (40° C./75% r.h., 3 months) is on record as 1.17%; in data set [4] (40° C./75% r.h., 6 months), 1.00%; in data set [4] (initial), 1.03%. Also, the Water is 3.9% in data set [4] (25° C./60% r.h., 3 months); 3.5% in data set [4] (25° C./60% r.h., 6 months); 3.5% in data set [4] (25° C./60% r.h., 9 months); 3.6% in data set [4] (25° C./60% r.h., 12 months); 3.6% in data set [4] (25° C./60% r.h., 18 months); 3.5% in data set [4] (25° C./60% r.h., 24 months). The Water in data set [4] (40° C./75% r.h., 3 months) was determined as 3.6%; in data set [4] (40° C./75% r.h., 6 months) it was 3.4%; in data set [4] (initial) it was 3.5%. Moreover, the chemical stability entry in data set [4] (during storage for several years) is listed as “chemically stable”. For the same compound, the bioavailability entry in data set [5] is given as “enhanced bioavailability”. Besides, in data set [6], the “Stability of the form in the tablet matrix” value is “stable in the tablet matrix and does not change during storage”. Further, the Modification residue result in data set [7] (slurry in 1,4-Dioxane, 25 ° C., stirring time 1 week) is given as “Monohydrate (A)”; in data set [7] (slurry in Acetonitrile/water (1:1), 25 ° C., stirring time 1 week), “Monohydrate (A)”; in data set [7] (slurry in Ethanol, 25 ° C., stirring time 4 weeks) it was “Monohydrate (A)”; in data set [7] (slurry in Ethanol/water (1:1), 25 ° C., stirring time 1 week) it was “Monohydrate (A)”; in data set [7] (slurry in Isopropanol, 0 ° C., stirring time 1 week), “Monohydrate (A)”; in data set [7] (slurry in Isopropanol, 25 ° C., stirring time 4 weeks), “Monohydrate (A)”. Also, the Modification residue entry in data set [7] (slurry in Methanol, 0 ° C., stirring time 2 weeks) is on record as “¾-Hydrate (D)”; in data set [7] (slurry in Methanol, 0 ° C., stirring time 5 weeks), “Dihydrate (B)”; in data set [7] (slurry in Methanol, 25 ° C., stirring time 1 week), “Monohydrate (A)”; in data set [7] (slurry in Tetrahydrofurane/water (1:1), 25 ° C., stirring time 4 weeks), “Monohydrate (A)”; in data set [7] (slurry in Toluene, 25 ° C., stirring time 4 weeks) it was “Monohydrate (A)”.
Consider `COCc1c(-c2cc3cc(C)cc(OC)c3s2)c2c(N)ncnn2c1CN1CCNC(=O)C1.Cl.O.O.O` [Trihydrate], for which the “Modification after storage in closed vessels” value in data set [1] (25° C.) was “Trihydrate”. In data set [3] (85% r. h.), the “Mass loss after storage” value worked out at 3.3% and the Modification after storage result is given as “Monohydrate*”. Moreover, in data set [3] (97% r. h.), the “Mass loss after storage” value was 6.0% and the Modification after storage result was “Monohydrate*”. Also, the “Change of solid form during storage at high humidity” value in data set [3] (storage at high humidity) was “changed into the monohydrate”.
`COCc1c(-c2cc3cc(C)cc(OC)c3s2)c2c(N)ncnn2c1CN1CCNC(=O)C1.Cl.O.O` [Dihydrate (B)]: the “Change of solid form during storage in a closed vessel” value in data set [1] (closed vessel, within two weeks) is on record as “transformed into the monohydrate”. Also, the “Change of solid form of isolated residue” value in data set [1] (stored at room temperature, in the course of two weeks) was “transformed into the Monohydrate”.
With `COCc1c(-c2cc3cc(C)cc(OC)c3s2)c2c(N)ncnn2c1CN1CCNC(=O)C1.Cl.Cl` [di-hydrochloride, di-hydrochloride of 4-{[4-Amino-6-(methoxymethyl)-5-(7-methoxy-5-methyl-1-benzothiophen-2-yl)pyrrolo[2,1-f][1,2,4]triazin-7-yl]methyl}piperazin-2-one], the Hygroscopicity entry in data set [8] is “very hydroscopic”. In addition, the chemical stability result in data set [8] (on standing in the air) is on record as “loses HCl on standing in the air”.

The values are drawn from US20220098201A1, “THE MONOHYDRATE OF ROGARATINIB HYDROCHLORIDE AND SOLID STATES THEREOF” (Bayer Aktiengesellschaft, priority 2019, published 2022).
